Activity calls are given as the source filed them. The rule behind the calls is not given here.

For experiment [1], the target named is T1, Cyclin-dependent kinase 2 (Homo sapiens, UniProt P24941). As to the kind of experiment: Inhibition of CDK2.
For experiment [2], the target named is T1, Cyclin-dependent kinase 2. As to the kind of experiment: Inhibition of CDK2 at 50 uM.
In experiment [3] the target is T2, Aurora kinase A (Homo sapiens, UniProt O14965).
T2 sequence (O14965 whole entry): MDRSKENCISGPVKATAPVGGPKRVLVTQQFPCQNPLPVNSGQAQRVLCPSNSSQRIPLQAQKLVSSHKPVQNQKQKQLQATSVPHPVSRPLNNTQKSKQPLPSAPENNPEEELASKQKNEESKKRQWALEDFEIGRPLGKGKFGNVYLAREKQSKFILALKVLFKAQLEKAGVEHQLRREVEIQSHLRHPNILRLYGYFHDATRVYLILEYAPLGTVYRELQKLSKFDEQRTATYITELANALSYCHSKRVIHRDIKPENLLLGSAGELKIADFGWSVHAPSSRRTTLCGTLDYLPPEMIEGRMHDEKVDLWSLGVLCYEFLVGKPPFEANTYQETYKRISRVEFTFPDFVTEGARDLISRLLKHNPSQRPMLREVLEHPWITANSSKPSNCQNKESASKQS
As to the kind of experiment: Inhibition of AUR2.

Experiment [4] is described as follows: Inhibition of MAPK.
Experiment [5] addresses Cyclin-dependent kinase 4 (Homo sapiens, UniProt P11802). The experiment is described as follows: Inhibition of CDK4.
Experiment [6] has as its target Cyclin-dependent kinase 1 (Homo sapiens, UniProt P06493). The experiment is described as follows: Inhibition of CDC2.
Experiment [7] concerns MCF7. As to the kind of experiment: Antiproliferative activity against human MCF7 cells by clonogenicity assay. Type of experiment: functional, cell-based.
Experiment [8] has as its system MCF7. The experiment is described as follows: Antiproliferative activity against human MCF7 cells by soft agar growth assay. It counts as functional, cell-based.

Chain of Cyclin-dependent kinase 1 (P06493 whole entry): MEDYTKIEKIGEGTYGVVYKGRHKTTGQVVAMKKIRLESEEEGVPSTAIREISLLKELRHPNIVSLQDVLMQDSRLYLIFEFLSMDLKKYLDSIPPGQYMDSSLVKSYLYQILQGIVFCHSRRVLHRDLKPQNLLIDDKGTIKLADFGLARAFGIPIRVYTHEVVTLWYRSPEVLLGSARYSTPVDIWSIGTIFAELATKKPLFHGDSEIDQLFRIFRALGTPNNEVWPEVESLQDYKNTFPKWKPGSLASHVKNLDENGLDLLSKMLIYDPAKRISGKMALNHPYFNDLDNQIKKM
Chain of Cyclin-dependent kinase 4 (P11802 whole entry): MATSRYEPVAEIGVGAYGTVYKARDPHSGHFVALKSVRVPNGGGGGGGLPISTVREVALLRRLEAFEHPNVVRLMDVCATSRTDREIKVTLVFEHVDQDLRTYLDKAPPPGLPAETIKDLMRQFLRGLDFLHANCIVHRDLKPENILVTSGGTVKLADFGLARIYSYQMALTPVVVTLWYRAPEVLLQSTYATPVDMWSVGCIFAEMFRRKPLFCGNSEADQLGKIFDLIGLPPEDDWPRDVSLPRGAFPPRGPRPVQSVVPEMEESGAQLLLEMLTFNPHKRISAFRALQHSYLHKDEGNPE

In experiment [1], `COc1ccc2c(c1OC)CN1CCc3cc4c(cc3C1C2)OCO4` (stereo unspecified) [TETRAHYDROBERBERINE] gave a concentration for half-maximal inhibition (IC50) above 50 µM.

`COc1cccc2c1cc1c3c(cc4c(c32)OCO4)C(=O)N1` [ARISTOLACTAM I] came in with an IC50 in experiment [1] of 1.2 µM.

`COc1cc2c(cc1OC)-c1c3c(cc4c1[C@H](C2)N(C)CC4)OCO3` [DICENTRINE]: the IC50 in experiment [1] is above 50 µM.

With `O=C1Nc2cc3c(O)cccc3c3c(O)c(O)cc1c23`, the result in experiment [2] was inactive. The same molecule came in with a half-inhibitory concentration (IC50) in experiment [1] above 35 µM.

`O=C1Nc2cc3ccccc3c3c4c(cc1c23)OCO4` [ARISTOLACTAM II]: the result in experiment [2] was inactive. Also, half-maximal inhibition in experiment [1] (IC50) was put at 15 µM.

In the case of `O=C(O)c1cc2c(c3c1c([N+](=O)[O-])cc1c(O)cccc13)OCO2` [ARISTOLOCHIC ACID III], in experiment [2], the outcome was inactive. In experiment [1], this molecule yielded an IC50 of 15 µM.

For the molecule `COc1cccc2c1cc1c3c(cc4c(c32)OCO4)C(=O)N1C`, the outcome in experiment [2] was inactive. In experiment [1], this molecule came in with an IC50 above 35 µM.

As to `COc1cc(O)cc2c1cc([N+](=O)[O-])c1c(C(=O)O)cc3c(c12)OCO3` [ARISTOLOCHIC D], the result in experiment [2] was inactive. In experiment [1], this molecule returned an IC50 of 25 µM.

For the molecule `O=C1Nc2cc3c(O)cccc3c3c4c(cc1c23)OCO4`, the IC50 in experiment [3] is 2.14 µM; in experiment [4], 35.3 µM; in experiment [5], 1.42 µM; in experiment [6], 0.214 µM; in experiment [1], 0.035 µM. In addition, in experiment [2], the result was inactive.

As for `COC1=C[C@]23CCN(C)[C@H](Cc4ccc(OC)c(O)c42)C3=CC1=O` [SALUTARIDINE], the half-maximal inhibitory concentration (IC50) in experiment [1] is above 50 µM.

The molecule `COC1=C[C@@H]2[C@@H]3Cc4ccc(OC)c(O)c4[C@]2(CCN3C)CC1=O` [SINOMENINE] displayed an IC50 in experiment [1] above 50 µM.

As for `COc1cccc2c1c(Cl)c([N+](=O)[O-])c1c(C(=O)O)cc(O)c(O)c12`, the result in experiment [2] was inactive. In experiment [1], this molecule registered an IC50 of 16.5 µM.

For the molecule `COc1c(O)ccc2c1cc1c3c(cc4c(c32)OCO4)C(=O)N1`, in experiment [1], the IC50 was found to be 2.9 µM.

Regarding `CN1CCc2cc3c(c4c2[C@H]1Cc1ccccc1-4)OCO3` [ROEMERINE HBR], the IC50 in experiment [1] is above 50 µM.

For `COc1c(O)ccc2c1cc([N+](=O)[O-])c1c(C(=O)O)cc3c(c12)OCO3` [7-HYDROXY ARISTOLOCHIC A], in experiment [2], the result was inactive. In addition, the IC50 in experiment [1] came to 25 µM.

For the molecule `COc1c(O)cc2c3c(cc4ccc(O)cc4c13)NC2=O` [ARISTOLACTAM AIIIA], the IC50 in experiment [3] was 5 µM; in experiment [4], above 50 µM; in experiment [7], 3 µM; in experiment [5], 2 µM; in experiment [6] it was 0.2 µM; in experiment [8] it was above 0.01 µM.

In experiment [1], `COc1cc2c3c(c1O)-c1c(ccc(OC)c1OC)C[C@@H]3N(C)CC2` [CORYDINE] displayed a 50% inhibitory concentration (IC50) above 50 µM.

For `COc1cccc2c1c(OC)c([N+](=O)[O-])c1c(C(=O)O)cc3c(c12)OCO3` [7-METHOXY ARISTOLOCHIC ACID A], the result in experiment [2] was inactive. Further, the IC50 in experiment [1] is above 20 µM.

With `O=C(O)c1cc(O)c(O)c2c1c([N+](=O)[O-])cc1c(O)cccc12`, in experiment [2], the result was inactive. The molecule further registered an IC50 in experiment [1] of 5.7 µM.

As to `O=C1Nc2cc3ccccc3c3c(O)c(O)cc1c23`, in experiment [2], the result was inactive. This molecule also displayed a half-maximal inhibitory concentration (IC50) in experiment [1] above 35 µM.

In experiment [1], `COc1cccc2c1C[C@@H]1c3c(cc4c(c3-2)OCO4)CCN1C` [STEPHANINE] yielded a half-maximal inhibitory concentration (IC50) above 50 µM.

Take `CN1C(=O)c2cc3c(c4c2c1cc1c(O)cccc14)OCO3`: the result in experiment [2] was inactive. Also, in experiment [1], the half-inhibitory concentration (IC50) is above 35 µM.

For the molecule `COc1cccc2c1cc1c3c(cc(O)c(O)c32)C(=O)N1`, in experiment [2], the result was inactive. Besides, the IC50 in experiment [1] was above 35 µM.

Consider `COc1cc(O)cc2c1cc1c3c(cc4c(c32)OCO4)C(=O)N1`, for which, in experiment [2], the result was inactive. This molecule also gave a concentration for half-maximal inhibition (IC50) in experiment [1] above 35 µM.

Consider `O=C1Nc2cc3ccc(O)cc3c3c4c(cc1c23)OCO4`, for which the IC50 in experiment [1] is 2.15 µM. In other words, the single-digit micromolar range.

`O=C1Nc2c(Cl)c3ccccc3c3c(O)c(O)cc1c23`: the outcome in experiment [2] was inactive. In experiment [1], this molecule returned a concentration for half-maximal inhibition (IC50) above 25 µM.

`COc1ccc2c(c1O)-c1c(O)c(OC)cc3c1[C@H](C2)N(C)CC3` [CORYTUBERINE] gave an IC50 in experiment [1] above 50 µM.

As for `COc1ccc2cc([N+](=O)[O-])c3c(C(=O)O)cc4c(c3c2c1)OCO4`, the result in experiment [2] was inactive. Besides, the IC50 in experiment [1] was above 20 µM.

With `COc1ccc2c(c1OC)CC1c3c(cc4c(c3-2)OCO4)CCN1C` (stereo unspecified) [CREBANINE], the IC50 in experiment [1] is above 50 µM.

With `O=C(O)c1cc(O)c(O)c2c1c([N+](=O)[O-])c(Cl)c1ccccc12`, the result in experiment [2] was inactive. In experiment [1], this molecule gave an IC50 of 18 µM.

As to `O=C1Nc2cc3c(O)c(O)ccc3c3c4c(cc1c23)OCO4`, the result in experiment [2] was inactive. This molecule came in with an IC50 in experiment [1] above 30 µM.

With `O=C(O)c1cc2c(c3c1c([N+](=O)[O-])cc1ccc(O)cc13)OCO2` [ARISTOLOCHIC ACID C], the result in experiment [2] was inactive. The molecule also registered an IC50 in experiment [1] of 30 µM.

On to `COc1cc(OC)c2cc3c4c(cc5c(c4c2c1)OCO5)C(=O)N3`, for which, in experiment [2], the outcome was inactive. For the same molecule, the IC50 in experiment [1] is above 15 µM.

For the molecule `COc1ccc2c(c1O)-c1c(OC)c(OC)cc3c1[C@H](C2)N(C)CC3` [ISOCORYDINE], in experiment [1], the IC50 was above 50 µM.

In the case of `COc1cc(OC)c2cc([N+](=O)[O-])c3c(C(=O)O)cc4c(c3c2c1)OCO4` [ARISTOLOCHIC ACID IV], in experiment [2], the outcome was inactive. Moreover, the half-inhibitory concentration (IC50) in experiment [1] is above 20 µM.

As to `COc1cccc2c1cc([N+](=O)[O-])c1c(C(=O)O)cc3c(c12)OCO3` [ARISTOLOCHIC ACID], the outcome in experiment [2] was inactive. The same molecule came in with a concentration for half-maximal inhibition (IC50) in experiment [1] above 20 µM.

Consider `O=C1Nc2cc3c(O)cc(O)cc3c3c4c(cc1c23)OCO4`, for which, in experiment [2], the result was inactive. The molecule further gave an IC50 in experiment [1] above 50 µM.

On to `COc1ccc2nc3[nH]nc(C)c3c(OC)c2c1`, for which the IC50 in experiment [3] was 5 µM; in experiment [4] it was above 50 µM; in experiment [7], 3.5 µM; in experiment [5], 2 µM; in experiment [6], 0.2 µM; in experiment [8], 2 µM. The same molecule had an IC50 in experiment [1] of 0.02 µM.

For `COc1ccc2c(cc3c4c(cc5c(c42)OCO5)C(=O)N3)c1OC`, in experiment [2], the result was inactive. In experiment [1], this molecule yielded an IC50 above 15 µM.

`O=C(O)c1cc2c(c3c1c([N+](=O)[O-])cc1ccccc13)OCO2` [ARISTOLOCHIC ACID II]: the outcome in experiment [2] was inactive. Further, in experiment [1], the half-inhibitory concentration (IC50) was above 20 µM.

As for `COc1cccc2c1cc([N+](=O)[O-])c1c(C(=O)O)cc(O)c(O)c12`, the result in experiment [2] was inactive. For the same molecule, the 50% inhibitory concentration (IC50) in experiment [1] is above 30 µM.

With `COc1cccc2c1c(Cl)c1c3c(cc(O)c(O)c32)C(=O)N1`, in experiment [2], the result was inactive. In experiment [1], this molecule displayed an IC50 of 10 µM.

On to `O=C(O)c1cc(O)c(O)c2c1c([N+](=O)[O-])cc1ccccc12`, for which the result in experiment [2] was inactive. Further, the 50% inhibitory concentration (IC50) in experiment [1] was 13.4 µM.

For the origin of these results see ChEMBL document CHEMBL1156890, “Semi-synthetic aristolactams--inhibitors of CDK2 enzyme” (Bioorg Med Chem Lett, 2010).
